What all share (format): functional
Assay [1] relates to Acinetobacter baumannii. As to the kind of experiment: Antibacterial activity against Acinetobacter baumannii ATCC 19606 assessed as growth inhibition after 18 hrs by monochromator plate assay.
The test system of assay [2] is Pseudomonas aeruginosa. As to the kind of experiment: Antibacterial activity against Pseudomonas aeruginosa ATCC 27853 assessed as growth inhibition after 18 hrs by monochromator plate assay.
Assay [3] relates to Klebsiella pneumoniae. As to the kind of experiment: Antibacterial activity against Klebsiella pneumoniae ATCC 700603 assessed as growth inhibition after 18 hrs by monochromator plate assay.
Assay [4] concerns Escherichia coli. As to the kind of experiment: Antibacterial activity against Escherichia coli ATCC 25922 assessed as growth inhibition after 18 hrs by monochromator plate assay.
Assay [5] relates to Staphylococcus aureus. As to the kind of experiment: Antibacterial activity against methicillin-resistant Staphylococcus aureus ATCC 43300 assessed as growth inhibition after 18 hrs by monochromator plate assay.
Assay [6] has as its system Cryptococcus neoformans. As to the kind of experiment: Antifungal activity against Cryptococcus neoformans var. grubii ATCC 208821 assessed as growth inhibition at 32 ug/ml after 36 hrs by monochromator plate assay relative to control. Particulars: dose 32.0 µg/ml.
In assay [7] the test system is Candida albicans. As to the kind of experiment: Antifungal activity against Candida albicans ATCC 90028 assessed as growth inhibition at 32 ug/ml after 36 hrs by monochromator plate assay relative to control.
In assay [8] the test system is Acinetobacter baumannii. As to the kind of experiment: Antibacterial activity against Acinetobacter baumannii ATCC 19606 assessed as growth inhibition at 32 ug/ml after 18 hrs by monochromator plate assay relative to control. The conditions noted are these: for inhibition: dose 32.0 µg/ml.
The subject of assay [9] is Pseudomonas aeruginosa. As to the kind of experiment: Antibacterial activity against Pseudomonas aeruginosa ATCC 27853 assessed as growth inhibition at 32 ug/ml after 18 hrs by monochromator plate assay relative to control.
Assay [10] deals with Klebsiella pneumoniae. As to the kind of experiment: Antibacterial activity against Klebsiella pneumoniae ATCC 700603 assessed as growth inhibition at 32 ug/ml after 18 hrs by microplate reader assay relative to control. The conditions noted are these: for inhibition: dose 32.0 µg/ml.
Assay [11] relates to Escherichia coli. As to the kind of experiment: Antibacterial activity against Escherichia coli ATCC 25922 assessed as growth inhibition at 32 ug/ml after 18 hrs by monochromator plate assay relative to control. The conditions noted are these: dose 32.0 µg/ml.
Assay [12] deals with Staphylococcus aureus. As to the kind of experiment: Antibacterial activity against methicillin-resistant Staphylococcus aureus ATCC 43300 assessed as growth inhibition at 32 ug/ml after 18 hrs by monochromator plate assay relative to control.
In assay [13] the test system is Candida albicans. As to the kind of experiment: Antifungal activity against Candida albicans ATCC 90028 assessed as growth inhibition after 36 hrs by monochromator plate assay.
Assay [14] concerns Cryptococcus neoformans. As to the kind of experiment: Antifungal activity against Cryptococcus neoformans var. grubii ATCC 208821) assessed as growth inhibition after 36 hrs by monochromator plate assay relative to control.

Values after ≈ are worked out from the molar mass of the structure shown. Active and inactive are the calls of the source. The rule behind the calls is not given here.

A word on the MIC: it is the lowest concentration that inhibits growth of the organism. What is called inhibition is the change of the read-out against control, counted positive when it falls. Regarding `Cc1ccc(-c2ccc(-c3nc(C)c(-c4cc(C(=O)NC5CCCCC5)n[nH]4)s3)cc2)cc1`, the MIC with Acinetobacter baumannii [1], in the assay on Pseudomonas aeruginosa [2], in the assay on Klebsiella pneumoniae [3], with Staphylococcus aureus [5] and in the assay on Candida albicans [13] was more than 32 mg/L throughout. The MIC result in the assay with Escherichia coli [4] and in the assay with Cryptococcus neoformans [14] was “inactive” in each case. For the same compound, the inhibition entry in the assay on Cryptococcus neoformans [6] and in the assay with Escherichia coli [11] was “inactive” each time. For the same compound, the inhibition at 32 µg/mL in the assay with Candida albicans [7] stood at 18.9%; in the assay on Acinetobacter baumannii [8], 4.3%; in the assay with Pseudomonas aeruginosa [9] it was 16.5%; in the assay on Klebsiella pneumoniae [10] it was 12.2%; in the assay on Staphylococcus aureus [12] it was 23.8%.
With `Cc1cccc(-c2ccc(-c3nc(C)c(-c4cc(C(=O)NC5CCCCC5)n[nH]4)s3)cc2)c1C`, the MIC result with Acinetobacter baumannii [1], in the assay with Klebsiella pneumoniae [3], with Escherichia coli [4] and in the assay on Cryptococcus neoformans [14] was “inactive” throughout. Further, the values for the MIC in the assay with Pseudomonas aeruginosa [2], in the assay with Staphylococcus aureus [5] and in the assay with Candida albicans [13] were more than 32 mg/L, 32 mg/L (≈ 68 µM) and more than 32 mg/L, respectively. For the same compound, the inhibition entry in the assay with Cryptococcus neoformans [6], with Acinetobacter baumannii [8], with Klebsiella pneumoniae [10] and with Escherichia coli [11] was “inactive” each time. Also, the results for the inhibition at 32 µg/mL in the assay on Candida albicans [7], with Pseudomonas aeruginosa [9] and in the assay on Staphylococcus aureus [12] were 6.1%, 7.1% and 7.2%, respectively.
`Cc1nc(-c2ccc(-c3cccc4c3OCO4)cc2)sc1-c1cc(C(=O)NC2CCCCC2)n[nH]1`: the MIC entry in the assay on Acinetobacter baumannii [1], in the assay on Klebsiella pneumoniae [3], in the assay with Escherichia coli [4] and in the assay with Cryptococcus neoformans [14] was “inactive” each time. Further, the MIC with Pseudomonas aeruginosa [2], with Staphylococcus aureus [5] and in the assay with Candida albicans [13] was more than 32 mg/L throughout. In addition, the inhibition result with Cryptococcus neoformans [6], in the assay on Acinetobacter baumannii [8], in the assay with Klebsiella pneumoniae [10] and with Escherichia coli [11] was “inactive” in each case. Also, the inhibition at 32 µg/mL with Candida albicans [7] came to 0.9%; with Pseudomonas aeruginosa [9], 6.2%; in the assay with Staphylococcus aureus [12], 41.2%.
Take `Cc1nc(-c2ccc(-c3ccccc3)cc2)sc1-c1cc(C(=O)Nc2cccc3ccccc23)n[nH]1`: the MIC with Acinetobacter baumannii [1], in the assay on Pseudomonas aeruginosa [2], in the assay with Klebsiella pneumoniae [3], with Staphylococcus aureus [5] and with Candida albicans [13] was more than 32 mg/L throughout. In addition, the MIC entry in the assay with Escherichia coli [4] and in the assay with Cryptococcus neoformans [14] was “inactive” throughout. Further, the inhibition entry with Cryptococcus neoformans [6] and in the assay with Escherichia coli [11] was “inactive” in each case. Further, the inhibition at 32 µg/mL in the assay with Candida albicans [7] came to 5.1%; in the assay on Acinetobacter baumannii [8], 0.9%; in the assay with Pseudomonas aeruginosa [9], 8.2%; with Klebsiella pneumoniae [10], 8.9%; in the assay with Staphylococcus aureus [12] it was 14.2%.
As to `Cc1nc(-c2ccc(-c3ccccc3)cc2)sc1-c1cc(C(=O)NCC2CCCCC2)n[nH]1`, the MIC result in the assay on Acinetobacter baumannii [1], in the assay on Pseudomonas aeruginosa [2], in the assay with Klebsiella pneumoniae [3], in the assay on Escherichia coli [4], with Candida albicans [13] and in the assay with Cryptococcus neoformans [14] was “inactive” each time. For the same compound, the MIC in the assay on Staphylococcus aureus [5] was more than 32 mg/L. In addition, the inhibition entry in the assay with Cryptococcus neoformans [6], in the assay with Candida albicans [7] (dose 32.0 µg/ml), in the assay on Acinetobacter baumannii [8], with Pseudomonas aeruginosa [9] (dose 32.0 µg/ml), in the assay with Klebsiella pneumoniae [10] and in the assay on Escherichia coli [11] was “inactive” each time. For the same compound, the inhibition at 32 µg/mL with Staphylococcus aureus [12] was found to be 4.1%.
